2 compounds from paper PMC10537268 (Plants, 2023) can be followed below.

Structures are written as SMILES. In brackets after ≈: the same amount, converted by molar mass. Several values for one entry are separate records, joined by “and”; a condition that tells them apart may be missing. Equal entries are not always repeated.

One data set deals with PC3 cells. The experiment in a line: MTT cytotoxicity assay, PC3. The format is cell-based. Conditions: Homo sapiens, PC-3, 24 h, read-out: IC50 PC3 cytotoxicity. On the procedure:
(§1) Human breast cancer cell lines MCF7 (ATCC HTB-22), human prostate cancer cell lines PC3 (ATCC CRL-1435), human lung cancer cell lines A549 (ATCC CCL-185), and human embryonic kidney cell lines HEK293 (ATCC CRL-1573) were cultured in Dulbecco’s Modified Eagle’s Medium/High Glucose (DMEM, High Glucose) or Dulbecco’s Modified Eagle’s Medium/F12 (DMEM, F12) at 37 °C in a humidified 5% CO2 atmosphere. The media were supplemented with 10% fetal bovine serum (FBS), 1% (v/v) antibiotic-antimycotics solution (100 U/mL of penicillin, 100 μg/mL of streptomycin, and 0.25 μg/mL of amphotericin B), and 1% (v/v) non-essential amino acids.
(§2) Cells were cultured for 24 h in 96-well plates containing 10^5 cells per well before exposure. The essential oils and geraniol were dissolved in DMSO (<1%) and diluted with respective medium for use in MTT assay (0.1–2000 µg/mL concentration range). After incubation, the […] and washed with D-PBS followed by addition of MTT (30 µL). After a 4 h incubation period, 150 µL of DMSO was added and mixed using a shaker at 25 °C. This was followed by measurement of the absorbances a 540 nm using the microplate reader. All experiments were performed in triplicate.

Data set [1] in a line: MTT cytotoxicity assay, HEK293. It is filed as cell-based. Conditions: human, HEK293 cells, healthy cell line, ND: Not detected. The protocol: as §1, §2
The next data set concerns MCF7 cells. Description: MTT cytotoxicity assay, MCF7. It is filed as cell-based. Conditions: Homo sapiens, MCF7, 24 h, read-out: IC50 MCF7 cytotoxicity. The protocol: as §1, §2
In another data set the test system is A549 cells. The experiment in a line: MTT cytotoxicity assay, A549. Conditions: Homo sapiens, A549, 24 h, read-out: IC50 A549 cytotoxicity. The format is cell-based. On the procedure:
as §1, §2

The target of a further data set is T1, AChE (Electrophorus electricus, UniProt O42275).
T1 construct: purchased Sigma Aldrich
T1 sequence (O42275 24-633): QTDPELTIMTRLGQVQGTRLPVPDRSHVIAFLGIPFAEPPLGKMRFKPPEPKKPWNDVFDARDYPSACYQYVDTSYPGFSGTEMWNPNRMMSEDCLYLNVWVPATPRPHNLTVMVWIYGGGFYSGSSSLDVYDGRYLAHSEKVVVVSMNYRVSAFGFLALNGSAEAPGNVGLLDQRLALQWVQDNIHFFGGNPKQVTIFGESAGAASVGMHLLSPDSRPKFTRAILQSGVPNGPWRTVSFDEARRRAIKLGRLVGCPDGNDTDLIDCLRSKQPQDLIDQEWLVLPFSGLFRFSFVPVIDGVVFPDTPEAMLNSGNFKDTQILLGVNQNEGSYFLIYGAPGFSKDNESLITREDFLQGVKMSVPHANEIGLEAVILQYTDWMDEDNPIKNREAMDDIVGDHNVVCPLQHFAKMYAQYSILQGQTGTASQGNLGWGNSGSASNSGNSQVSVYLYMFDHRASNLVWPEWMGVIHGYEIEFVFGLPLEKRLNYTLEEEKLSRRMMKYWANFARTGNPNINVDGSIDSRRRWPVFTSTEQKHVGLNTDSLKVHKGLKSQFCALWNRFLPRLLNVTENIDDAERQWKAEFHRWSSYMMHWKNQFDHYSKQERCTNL
The experiment in a line: Anticholinesterase activity, modified Ellman method (AChE). The format is biochemical. On the procedure:
Cholinesterase inhibition was determined spectrophotometrically through the modified Ellman method. Ethanol was used as negative control. Sodium phosphate buffer, AChE enzyme stock solution, the essential oils, and geraniol were mixed and allowed to incubate for 30 min at room temperature DTNB and acetylthiocholine were added to initiate the enzyme reaction.

For the next data set, the target named is T2, ACE2 (Homo sapiens, UniProt Q9BYF1).
T2 construct: purchased BioVision K310
T2 sequence (Q9BYF1 18-805): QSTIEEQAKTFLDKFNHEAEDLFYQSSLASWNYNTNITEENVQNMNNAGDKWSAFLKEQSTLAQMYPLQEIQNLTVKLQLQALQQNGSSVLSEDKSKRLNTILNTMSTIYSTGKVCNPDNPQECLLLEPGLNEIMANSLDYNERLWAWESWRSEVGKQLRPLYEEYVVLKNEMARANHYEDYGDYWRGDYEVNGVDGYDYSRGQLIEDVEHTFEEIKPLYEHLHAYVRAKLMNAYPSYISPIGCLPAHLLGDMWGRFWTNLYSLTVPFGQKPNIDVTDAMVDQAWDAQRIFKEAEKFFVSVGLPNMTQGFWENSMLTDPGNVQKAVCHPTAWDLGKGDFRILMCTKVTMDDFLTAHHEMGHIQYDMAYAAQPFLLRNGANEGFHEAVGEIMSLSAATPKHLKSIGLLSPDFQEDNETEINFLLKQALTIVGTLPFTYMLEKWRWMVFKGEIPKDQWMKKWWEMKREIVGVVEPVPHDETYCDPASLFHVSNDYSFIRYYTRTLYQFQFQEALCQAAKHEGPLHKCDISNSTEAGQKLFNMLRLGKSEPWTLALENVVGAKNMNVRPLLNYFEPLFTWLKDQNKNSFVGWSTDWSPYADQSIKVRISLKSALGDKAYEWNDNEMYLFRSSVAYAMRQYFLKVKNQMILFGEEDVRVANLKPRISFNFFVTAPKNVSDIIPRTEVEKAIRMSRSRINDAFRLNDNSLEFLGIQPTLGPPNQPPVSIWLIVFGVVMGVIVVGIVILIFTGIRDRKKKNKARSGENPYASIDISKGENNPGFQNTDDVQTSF
Description: ACE2 enzyme inhibition assay (BioVision kit). The note with it: read-out: ACE2 inhibition. The format is biochemical. The protocol:
The ACE2 enzyme inhibition assay was performed using the commercially available kit (BioVision, UK, Catalog number: K310). Stock solutions of the test samples were prepared in DMSO (1%, v/v). Essential oils (20 μg/mL) and geraniol (5 μg/mL) were dispensed into a 96-well plate followed by addition of ACE2 enzyme solution (blank excluded). The reaction was started by adding 40 µL of substrate solution to each well. The reaction mixture was measured at Ex/Em = 320/420 nm wavelength using the SpectraMax i3, fluorescent microplate reader (Molecular Devices, CA, USA). The results are reported as % inhibition values, which were obtained for all samples from triplicate experiments.

Another data set has as its target T3, COX-1 (Ovis aries, UniProt P05979).
T3 construct: purchased Cayman Chemical Company 700100
T3 sequence (P05979 25-600): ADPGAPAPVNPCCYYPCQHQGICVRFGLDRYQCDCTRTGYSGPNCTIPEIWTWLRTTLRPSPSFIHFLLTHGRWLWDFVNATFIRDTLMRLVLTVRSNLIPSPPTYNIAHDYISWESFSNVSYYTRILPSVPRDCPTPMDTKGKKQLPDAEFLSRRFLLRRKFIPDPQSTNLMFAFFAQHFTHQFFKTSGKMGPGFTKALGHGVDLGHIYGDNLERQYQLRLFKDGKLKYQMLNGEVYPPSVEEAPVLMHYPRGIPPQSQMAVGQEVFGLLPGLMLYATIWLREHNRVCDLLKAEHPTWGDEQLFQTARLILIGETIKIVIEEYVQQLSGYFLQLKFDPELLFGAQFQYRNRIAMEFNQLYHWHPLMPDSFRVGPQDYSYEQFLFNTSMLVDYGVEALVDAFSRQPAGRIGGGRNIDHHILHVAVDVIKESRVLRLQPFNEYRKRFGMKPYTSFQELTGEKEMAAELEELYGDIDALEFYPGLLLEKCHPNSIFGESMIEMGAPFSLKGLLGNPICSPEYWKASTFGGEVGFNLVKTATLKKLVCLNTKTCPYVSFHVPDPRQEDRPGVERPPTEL
Description: COX-1 fluorometric inhibitory screening assay kit. It is filed as biochemical, Ovine. On the procedure: (§3) The essential oils and geraniol were tested using a commercial COX-1 (Ovine), COX-2 (Human recombinant), and fluorometric inhibitory screening assay kit following the instructions recommended by the manufacturer (Cayman test kit 700100, Cayman Chemical Company, Ann Arbor, MI, USA). Briefly, 150 µL of assay buffer (0.1 M Tris-HCl pH 8.0), 10 µL of Heme, 10 µL of enzyme (COX-1 or COX-2), and 10 µL of the test sample were added to the wells. After 5 min at 25 °C, 10 µL of ADHP (10-acetyl-3 7-dihydroxy phenoxazine) and 10 µL of arachidonic acid were added to initiate the reaction. The plate was incubated at room temperature for 2 min followed by fluorescence measured at 530 nm (excitation) and 585 nm (emission). Stock solution of the essential oils was prepared with DMSO 1%. The triplicate experimental data are expressed as mean ± standard deviation (SD). For the percentage inhibition (%I) calculations, the formula below was used:t% I = [(Initial Activity − Sample Activity)/Initial Activity] × 100

Another data set concerns the target T4, COX-2 (Homo sapiens, UniProt P35354).
T4 sequence (P35354 18-604): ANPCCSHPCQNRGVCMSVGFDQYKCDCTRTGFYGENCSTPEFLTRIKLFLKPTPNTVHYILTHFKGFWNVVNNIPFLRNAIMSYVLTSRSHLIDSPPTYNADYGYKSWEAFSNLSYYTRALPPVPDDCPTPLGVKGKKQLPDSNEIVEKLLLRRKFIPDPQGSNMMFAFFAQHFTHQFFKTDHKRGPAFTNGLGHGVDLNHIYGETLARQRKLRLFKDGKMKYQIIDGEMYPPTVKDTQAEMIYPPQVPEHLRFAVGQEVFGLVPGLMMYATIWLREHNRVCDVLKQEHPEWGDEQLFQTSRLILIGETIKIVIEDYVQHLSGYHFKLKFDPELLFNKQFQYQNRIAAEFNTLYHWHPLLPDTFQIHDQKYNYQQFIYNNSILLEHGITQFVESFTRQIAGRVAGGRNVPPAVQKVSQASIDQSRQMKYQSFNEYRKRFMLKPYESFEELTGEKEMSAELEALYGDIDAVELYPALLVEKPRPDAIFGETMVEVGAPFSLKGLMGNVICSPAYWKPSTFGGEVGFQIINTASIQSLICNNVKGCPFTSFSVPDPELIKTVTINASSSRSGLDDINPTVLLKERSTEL
Description: biochemical. The protocol:
as §3

Setting [2] is: human recombinant COX-2, fluorometric kit.

As for `CC(C)=CCC/C(C)=C/CO` [Geraniol], the IC50 was 77 ± 2.06 µg/mL (≈ 499 µM) in the data set with PC3 cells; 42.8 ± 1.48 µg/mL (≈ 278 µM) with MCF7 cells; 58.9 ± 1.09 µg/mL (≈ 382 µM) in the data set on A549 cells; 109 µM against AChE; 71.3 µM and 72.4 µM at COX-1 (IC50 COX-1, ovine COX-1, fluorometric kit); 52.5 µM and 52.6 µM on COX-2 (setting [2]). The compound further gave an IC50 at 24 h in data set [1] of 81.8 ± 1.98 µg/mL (≈ 530 µM). In addition, at ACE2, the inhibition at 5 µg/mL worked out at 86.3%. Further, the “SI (selectivity index)” value at COX-2 (COX-2 versus COX-1 IC50) stood at 0.72.

For `CC(Cc1ccc(O)c(O)c1)C(C)Cc1ccc(O)c(O)c1` (centres unmarked) [Nordihydroguaretic Acid, Nordihydroguaiaretic acid, reference compound], the “IC50 COX-1” value against COX-1 (ovine COX-1, fluorometric kit) worked out at 7.1 µg/mL (≈ 23.5 µM). At COX-2 (setting [2]), the “IC50 COX-2” value is 9.1 µg/mL.
